Changes are numbered by the printed parent chain. Values joined by “and” are separate entries in the source; they are usually repeats but may differ in a detail not shown here. Identical values can stand only once.
Tests used:
human HSD17B13 [1] = biological target: T1, human HSD17B13 (Homo sapiens, UniProt Q7Z5P4); experiment: Cell assay: HEK cells stably expressing wild-type human HSD17B13, estrone production by LCMS; format: cell-based
T1 construct: expressed in transfected cells
T1 sequence (Q7Z5P4 20-300): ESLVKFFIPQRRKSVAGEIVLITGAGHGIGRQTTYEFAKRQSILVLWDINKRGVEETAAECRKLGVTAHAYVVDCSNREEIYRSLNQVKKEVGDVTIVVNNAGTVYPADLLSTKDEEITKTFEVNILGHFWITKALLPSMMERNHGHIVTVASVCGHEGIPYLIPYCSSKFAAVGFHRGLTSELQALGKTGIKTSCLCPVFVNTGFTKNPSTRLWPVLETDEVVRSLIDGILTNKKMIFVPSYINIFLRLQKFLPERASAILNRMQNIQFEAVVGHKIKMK
Description: Cell inhibition potency of test compounds was determined using a whole-cell HEK overexpressing HSD17B13, utilizing a liquid chromatography/mass spectrometry (LCMS) readout.
In this assay HSD17B13 uses NAD^+ as a cofactor during metabolism of β-estradiol, converting NAD^+ to NADH and β-estradiol to estrone. Estrone production is quantified by LCMS using a Sciex API-5500-Electrospray system (AB Sciex LLC, MA, USA), and used as a measure of HSD17B13 enzyme activity.
The amount of product (estrone) was then quantified by LCMS using software provided (Analyst 1.7, Hotfix 3, MultiQuant 3.0.31721.0). Data expressed as product area ratio (PAR) were then normalized to control wells using Activity Base (IDBS). Zero percent effect (ZPE) was defined as PAR generated from uninhibited HSD17B13 (vehicle control).

human HSD17B13 [2] = biological target: T2, human HSD17B13 (Homo sapiens, UniProt Q7Z5P4); experiment: HSD17B13 purified protein biochemical enzyme activity assay, NAD(P)H-Glo luciferase readout; settings: Leukotriene B4 as substrate, NAD+ cofactor
T2 construct: human HSD17B13 (residues 2-300, NP_835236.2); 10x His (N); TEV protease site (N); made in house; host or cells: Sf9 (baculovirus)
T2 sequence (Q7Z5P4 2-300): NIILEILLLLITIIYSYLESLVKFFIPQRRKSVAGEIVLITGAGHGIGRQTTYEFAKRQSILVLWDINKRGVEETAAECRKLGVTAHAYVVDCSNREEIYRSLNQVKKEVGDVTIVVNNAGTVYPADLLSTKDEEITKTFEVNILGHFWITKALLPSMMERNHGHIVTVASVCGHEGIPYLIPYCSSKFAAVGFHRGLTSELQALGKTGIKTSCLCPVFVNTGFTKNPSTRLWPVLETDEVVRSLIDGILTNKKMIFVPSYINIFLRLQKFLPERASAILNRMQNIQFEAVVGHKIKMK

human HSD17B13 [3] = biological target: T2, human HSD17B13; experiment: Thermal shift assay (static light scattering, Tagg), human HSD17B13; format: binding; settings: for Tagg, individual measurements: 10.4 µM protein; for thermal stability change: Fig. 6c
Description: (§1) To understand ligand binding, we tested several approaches such as surface plasmon resonance and isothermal calorimetry. […] We next turned to thermal shift assays (TSA) for comparing ligand binding affinities. TSA measures the changes in the thermal denaturation temperature of a protein under different conditions such as the presence compound, changes in buffer conditions, or sequence mutations. There are various readouts including intrinsic fluorescence or light scattering signals. We chose the static light scattering methods to detect the temperatures at which our proteins start to aggregate (Tagg), which are more suitable for membrane proteins that require detergent micelles for stability.
TSA studies were run on the UNit instrument (Unchained Labs, CA, USA). Experiments were run in either 25 mM sodium phosphate pH 7, 150 mM NaCl, 10% glycerol, 1 mM TCEP, 0.05% DDM, + different cofactors (NAD^+, NADH, NADP, NADPH; MilliporeSigma) or 25 mM HEPES pH 7.2, 300 mM NaCl, 0.5 mM TCEP, 0.05% DDM, 10% glycerol, ±500 µM NAD^+, and ±100 µM compound 1 (from 2 mM DMSO stock) or DMSO or 50 mM Hepes pH 7.5, 300 mM NaCl, 0.5 mM TCEP, 0.05% DDM, 500 µM NAD^+, ± 50 µM compounds (from 2 mM stock) or DMSO. Protein aggregation was measured by static light scattering at 266 and 473 nm with a 1 °C/sec ramp rate from 20-80 °C. The data was processed using the UNcle software (Unchained Labs, CA, USA), and temperatures at which the protein started aggregation were recorded as Tagg. Reported Tagg and analysis were based on measurements at 266 nm unless otherwise indicated.

dog WT HSD17B13 = biological target: T3, dog WT HSD17B13 (Canis lupus familiaris, UniProt A0A8C0PP93); experiment: Thermal shift assay (static light scattering, Tagg), dog WT HSD17B13; format: binding; settings: Fig. 6d; 500 μM NAD+
T3 construct: HSD17B13 (AA1-300, XP_038300006.1); made in house; host or cells: Sf9 (baculovirus)
T3 sequence (A0A8C0PP93 1-300): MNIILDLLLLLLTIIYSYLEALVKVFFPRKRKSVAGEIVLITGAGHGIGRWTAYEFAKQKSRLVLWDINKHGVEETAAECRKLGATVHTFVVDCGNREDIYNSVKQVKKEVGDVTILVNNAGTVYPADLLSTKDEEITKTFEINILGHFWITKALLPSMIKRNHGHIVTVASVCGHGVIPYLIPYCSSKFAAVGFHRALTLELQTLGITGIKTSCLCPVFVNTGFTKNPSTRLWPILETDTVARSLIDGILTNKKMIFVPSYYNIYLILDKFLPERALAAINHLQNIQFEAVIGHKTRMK
Description: as §1
(§2) TSA studies were run on the UNit instrument (Unchained Labs, CA, USA). […] The data was processed using the UNcle software (Unchained Labs, CA, USA), and temperatures at which the protein started aggregation were recorded as Tagg.

[4] = biological target: T4, dog mutant HSD17B13 (G177E/V178G/T205A/I293V) (Canis lupus familiaris, UniProt A0A8C0PP93, G177E/I293V/T205A/V178G); experiment: Thermal shift assay (static light scattering, Tagg), dog mutant HSD17B13; format: binding; settings: Fig. 6d, 500 μM NAD+
T4 construct: HSD17B13 (AA1-300, XP_038300006.1); made in house; host or cells: Sf9 (baculovirus)
T4 sequence (A0A8C0PP93 1-300 G177E/V178G/T205A/I293V): T3 sequence (A0A8C0PP93 1-300) with G177E, V178G, T205A, I293V
Description: as §1, §2

Compound: O=C(NC[C@]1(O)CC[C@H](COc2ccccc2F)CC1)c1ccc(O)c(F)c1 [Compound 1]
- activity in cell assay (human HSD17B13 [1]; HEK cells overexpressing HSD17B13): active
- IC50 (human HSD17B13 [1]; HEK cells overexpressing HSD17B13, β-estradiol substrate): 570 ± 120 nM
- IC50 (human HSD17B13 [2]): 250 ± 90 nM
- Tagg, individual measurements (human HSD17B13 [3]; 100 µM ligand + 500 µM NAD+): 54.6 °C and 55.1 °C (2×) and 54.2 °C
- Tagg, individual measurements (human HSD17B13 [3]; 100 µM ligand, buffer without NAD+): 41.2 °C and 41.6 °C and 44.6 °C and 45 °C
- deltaTagg (human HSD17B13 [3]; 500 uM NAD, 100 µM ligand, Tagg(compound + NAD+) - Tagg(buffer + NAD+)): 13.1
- thermal stability change (human HSD17B13 [3]; in the absence of cofactor): no significant effect
- thermal stability change (human HSD17B13 [3]; in the presence of NAD+): significant increase in thermal stability
- binding in TSA (human HSD17B13 [3]; Fig. 6d, 500 μM NAD+): bound human HSD17B13 strongly
- Tagg (human HSD17B13 [3]; Fig. 6d, 500 μM NAD+, 50 µM compound): 49.1 ± 2.0 °C
- dTagg (human HSD17B13 [3]; no NAD, 100 µM ligand, vs buffer): 3.033
- stabilization in TSA (dog WT HSD17B13): Neither 1 nor 2 stabilized dog WT HSD17B13 significantly
- binding in TSA [4]: bound compound 1 strongly
- Tagg ([4]; 50 µM compound): 46.8 ± 2.2 °C
